From US6737383B1, “Herbicidal oxadiazolidines” (priority 1999, dated 2004)

What was measured:
velvetleaf = test: Test B pre/postemergence velvetleaf; type: in vivo, Abutilon theophrasti
Method in brief: (§1)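 Herbicidal effect was estimated by eye on a ten-point control scale after plants spent twelve to sixteen days in a greenhouse following soil or foliar treatment. Foliar sprays targeted plants at one to four leaves; all doses were formulated in a non-phytotoxic solvent with surfactant.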

cocklebur = test: Test B pre/postemergence cocklebur; type: in vivo, Xanthium strumarium
Method in brief: as §1

pigweed = test: Test B pre/postemergence pigweed; type: in vivo, Amaranthus retroflexus
Method in brief: as §1

morningglory = test: Test B pre/postemergence morningglory; type: in vivo, Ipomoea hederacea
Method in brief: as §1

rape = test: Test B pre/postemergence rape; type: in vivo, Brassica napus
Method in brief: as §1

crabgrass = test: Test B pre/postemergence crabgrass; type: in vivo, Digitaria sanguinalis
Method in brief: as §1

corn = test: Test B pre/postemergence corn; type: in vivo, Zea mays
Method in brief: as §1

bamyardgrass = test: Test B flood test barnyardgrass; type: in vivo, Echinochloa crus-galli
Method in brief: (§2)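 Read-out is a visual response score from 0 (no effect) to 10 (complete control), assigned by comparison with untreated controls. Treatment was applied at the 2-leaf stage, and plants stayed in the greenhouse for twelve to sixteen days before scoring.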

purple nutsedge = test: Test B pre/postemergence purple nutsedge; type: in vivo, Cyperus rotundus
Method in brief: as §1

soybean = test: Test B pre/postemergence soybean; type: in vivo, Glycine max
Method in brief: as §1

wild oat = test: Test B pre/postemergence wild oat; type: in vivo, Avena fatua
Method in brief: as §1

blackgrass = test: Test B pre/postemergence blackgrass; type: in vivo, Alopecurus myosuroides
Method in brief: as §1

surinam grass = test: Test B pre/postemergence surinam grass; type: in vivo, Brachiaria decumbens
Method in brief: as §1

bedstraw = test: Test B pre/postemergence bedstraw; type: in vivo, Galium aparine
Method in brief: as §1

giant foxtail = test: Test B pre/postemergence giant foxtail; type: in vivo, Setaria faberii
Method in brief: as §1

smallflower flatsedge = test: Test B flood test smallflower flatsedge; type: in vivo, Cyperus difformis
Method in brief: as §2

sugar beet = test: Test B pre/postemergence sugar beet; type: in vivo, Beta vulgaris
Method in brief: as §1

wheat = test: Test B pre/postemergence wheat; type: in vivo, Triticum aestivum
Method in brief: as §1

rice = test: Test B flood test rice; type: in vivo, Oryza sativa
Method in brief: as §2

duck salad = test: Test B flood test duck salad; type: in vivo, Heteranthera limosa
Method in brief: as §2

[1] = Postemergence, Rate 62 g/ha, scale 0 to 10, 0 is no effect, 10 is complete control
[2] = Postemergence, Rate 125 g/ha, scale of 0 to 10 where 0 is no effect and 10 is complete control
[3] = Preemergence, Rate 62 g/ha, scale of 0 to 10 where 0 is no effect and 10 is complete control
[4] = Preemergence, Rate 125 g/ha, scale of 0 to 10 where 0 is no effect and 10 is complete control
[5] = Preemergence, Rate 500 g/ha, scale of 0 to 10 where 0 is no effect and 10 is complete control
[6] = Rate 500 g/ha, Postemergence, scale 0 to 10, 0 is no effect, 10 is complete control
[7] = Postemergence, Rate 250 g/ha, scale of 0 to 10, 0 is no effect, 10 is complete control
[8] = Preemergence, Rate 250 g/ha, scale 0 to 10 (0 no effect, 10 complete control)
[9] = Rate 62 g/ha, flood test species, Pre-emergence, visual evaluation after twelve to sixteen days
[10] = Rate 125 g/ha, under heading Pre-emergence, flood test species, visual evaluation after twelve to sixteen days
[11] = Rate 250 g/ha, Pre-emergence (flood test species), scale 0 to 10, 0 is no effect, 10 is complete control
[12] = Rate 500 g/ha, Pre-emergence section of Table B, 0 to 10 scale (0 no effect, 10 complete control)

CC(C)N(C(=O)n1oc(=O)n(CCCC#N)c1=O)c1ccccc1 [Compound 674]
Plant response rating, Velvetleaf (velvetleaf; [1]): 4 | Velvetleaf plant response rating (velvetleaf; [2]): 6 | Velvetleaf plant response rating (velvetleaf; [3]): 6 | Plant response rating, Velvetleaf (velvetleaf; [4]): 7 | Plant response rating, Velvetleaf (velvetleaf; [5]): 10 | Velvetleaf plant response rating (velvetleaf; [6]): 8 | Plant response rating, Cocklebur (cocklebur; [1]): 0 | Cocklebur plant response rating (cocklebur; [2]): 0 | Cocklebur plant response rating (cocklebur; [7]): 2 | Cocklebur plant response rating (cocklebur; [3]): 0 | Plant response rating, Cocklebur (cocklebur; [4]): 0 | Plant response rating, Cocklebur (cocklebur; [8]): 0 | Plant response rating, Cocklebur (cocklebur; [5]): 0 | Cocklebur plant response rating (cocklebur; [6]): 4 | Plant response rating, Redroot pigweed (pigweed; [1]): 0 | Redroot pigweed plant response rating (pigweed; [2]): 3 | Redroot pigweed plant response rating (pigweed; [3]): 7 | Plant response rating, Redroot pigweed (pigweed; [4]): 7 | Plant response rating, Redroot pigweed (pigweed; [5]): 10 | Redroot pigweed plant response rating (pigweed; [6]): 7 | Plant response rating, Morningglory (morningglory; [1]): 2 | Morningglory plant response rating (morningglory; [2]): 2 | Morningglory plant response rating (morningglory; [7]): 10 | Morningglory plant response rating (morningglory; [3]): 0 | Plant response rating, Morningglory (morningglory; [4]): 0 | Plant response rating, Morningglory (morningglory; [5]): 7 | Plant response rating, Rape (rape; [1]): 0 | Rape plant response rating (rape; [2]): 0 | Rape plant response rating (rape; [3]): 0 | Plant response rating, Rape (rape; [4]): 3 | Plant response rating, Rape (rape; [5]): 8 | Rape plant response rating (rape; [6]): 5 | Plant response rating, Crabgrass (crabgrass; [1]): 6 | Crabgrass plant response rating (crabgrass; [2]): 8 | Crabgrass plant response rating (crabgrass; [7]): 9 | Crabgrass plant response rating (crabgrass; [3]): 8 | Plant response rating, Crabgrass (crabgrass; [4]): 9 | Plant response rating, Crabgrass (crabgrass; [8]): 9 | Plant response rating, Crabgrass (crabgrass; [5]): 9 | Crabgrass plant response rating (crabgrass; [6]): 9 | Plant response rating, Corn (corn; [1]): 0 | Corn plant response rating (corn; [2]): 3 | Corn plant response rating (corn; [7]): 6 | Corn plant response rating (corn; [3]): 2 | Plant response rating, Corn (corn; [4]): 3 | Plant response rating, Corn (corn; [8]): 5 | Plant response rating, Corn (corn; [5]): 8 | Corn plant response rating (corn; [6]): 7 | Plant response rating, Barnyardgrass (0 to 10 scale, 0 is no effect, 10 is complete control) (bamyardgrass; [9]): 0 | Barnyardgrass plant response rating (0 to 10 scale, 0 is no effect, 10 is complete control) (bamyardgrass; [10]): 0 | Barnyardgrass plant response rating (bamyardgrass; [11]): 0 | Barnyardgrass plant response rating (bamyardgrass; [12]): 0 | Plant response rating, Nutsedge (purple nutsedge; [1]): 0 | Nutsedge plant response rating (purple nutsedge; [2]): 3 | Nutsedge plant response rating (purple nutsedge; [3]): 0 | Plant response rating, Nutsedge (purple nutsedge; [4]): 0 | Plant response rating, Nutsedge (purple nutsedge; [5]): 6 | Plant response rating, Soybean (soybean; [1]): 2 | Soybean plant response rating (soybean; [2]): 3 | Soybean plant response rating (soybean; [3]): 3 | Plant response rating, Soybean (soybean; [4]): 3 | Plant response rating, Soybean (soybean; [5]): 7 | Soybean plant response rating (soybean; [6]): 7 | Plant response rating, Wild oats (wild oat; [1]): 0 | Wild oats plant response rating (wild oat; [2]): 0 | Wild oats plant response rating (wild oat; [3]): 1 | Plant response rating, Wild oats (wild oat; [4]): 3 | Plant response rating, Wild oats (wild oat; [5]): 10 | Wild oats plant response rating (wild oat; [6]): 3 | Plant response rating, Blackgrass (blackgrass; [1]): 4 | Blackgrass plant response rating (blackgrass; [2]): 7 | Blackgrass plant response rating (blackgrass; [7]): 8 | Blackgrass plant response rating (blackgrass; [3]): 6 | Plant response rating, Blackgrass (blackgrass; [4]): 8 | Plant response rating, Blackgrass (blackgrass; [8]): 9 | Plant response rating, Blackgrass (blackgrass; [5]): 9 | Blackgrass plant response rating (blackgrass; [6]): 9 | Plant response rating, B. signalgrass (surinam grass; [1]): 3 | B. signalgrass plant response rating (surinam grass; [2]): 5 | B. signalgrass plant response rating (surinam grass; [7]): 8 | B. signalgrass plant response rating (surinam grass; [3]): 6 | Plant response rating, B. signalgrass (surinam grass; [4]): 7 | Plant response rating, B. signalgrass (surinam grass; [8]): 8 | Plant response rating, B. signalgrass (surinam grass; [5]): 8 | B. signalgrass plant response rating (surinam grass; [6]): 8 | Bedstraw plant response rating (bedstraw; [7]): 0 | Bedstraw plant response rating (bedstraw; [3]): 0 | Plant response rating, Bedstraw (bedstraw; [4]): 0 | Plant response rating, Bedstraw (bedstraw; [5]): 0 | Plant response rating, Giant foxtail (giant foxtail; [1]): 7 | Giant foxtail plant response rating (giant foxtail; [2]): 9 | Giant foxtail plant response rating (giant foxtail; [7]): 9 | Giant foxtail plant response rating (giant foxtail; [3]): 6 | Plant response rating, Giant foxtail (giant foxtail; [4]): 9 | Plant response rating, Giant foxtail (giant foxtail; [5]): 10 | Giant foxtail plant response rating (giant foxtail; [6]): 9 | Plant response rating, S. Flatsedge (0 to 10 scale, 0 is no effect, 10 is complete control) (smallflower flatsedge; [9]): 0 | S. Flatsedge plant response rating (0 to 10 scale, 0 is no effect, 10 is complete control) (smallflower flatsedge; [10]): 0 | S. Flatsedge plant response rating (smallflower flatsedge; [11]): 0 | S. Flatsedge plant response rating (smallflower flatsedge; [12]): 0 | Plant response rating, Sugarbeets (sugar beet; [1]): 0 | Sugarbeets plant response rating (sugar beet; [2]): 0 | Sugarbeets plant response rating (sugar beet; [3]): 2 | Plant response rating, Sugarbeets (sugar beet; [4]): 5 | Plant response rating, Sugarbeets (sugar beet; [5]): 9 | Sugarbeets plant response rating (sugar beet; [6]): 5 | Plant response rating, Wheat (wheat; [1]): 0 | Wheat plant response rating (wheat; [2]): 0 | Wheat plant response rating (wheat; [3]): 0 | Plant response rating, Wheat (wheat; [4]): 5 | Plant response rating, Wheat (wheat; [5]): 8 | Wheat plant response rating (wheat; [6]): 7 | Plant response rating, Rice (0 to 10 scale, 0 is no effect, 10 is complete control) (rice; [9]): 0 | Rice plant response rating (0 to 10 scale, 0 is no effect, 10 is complete control) (rice; [10]): 0 | Rice plant response rating (rice; [11]): 0 | Rice plant response rating (rice; [12]): 0 | Plant response rating, Ducksalad (0 to 10 scale, 0 is no effect, 10 is complete control) (duck salad; [9]): 0 | Ducksalad plant response rating (0 to 10 scale, 0 is no effect, 10 is complete control) (duck salad; [10]): 0 | Ducksalad plant response rating (duck salad; [11]): 0 | Ducksalad plant response rating (duck salad; [12]): 0
